# Laboratory results taken from US20210401833A1 (IMBRIA PHARMACEUTICALS, INC., priority 2020, published 2021).
# Like-named read-outs stand apart in the source and are kept apart here.
# Key:
# [1] = human, in vivo, 150 mg
# Excerpt: (§1) Data on the performance of the method and stability indicate that the sample results as reported are reliable.
# [2] = 28-day dog study (nonclinical toxicology, NOAEL); type: in vivo; details: for AUC(0-t): po, 200 mg/kg/day
# Experimental: Based on the nonclinical toxicology data, it was considered that subjects in this clinical study were not at unreasonable risk of adverse effects. […] For a 60-kg individual, the NOAEL dose would be 6480 mg. With a 10-fold safety factor applied, this would allow for a maximum recommended starting dose (MRSD) of 648 mg/day. 7,8 The planned starting dose in the current Phase 1 study was 50 mg, equivalent to 0.83 mg/kg/day for a 60-kg subject. This starting dose is less than 10% of the MRSD determined from the dog NOAEL and less than 1% of the dog NOAEL
# The relevant animal study was the 28-day dog study where the NOAEL for IMB-1018972 was 200 mg/kg/day.
# clinical = details: human, in vivo; for AUC0-t higher after the 8-hour MR formulation than after the 4-hour MR formulation / AUC0-t lower after the 8-hour MR formulation than after the 4-hour MR formulation / Tmax: po
# Excerpt: The blood samples were taken via an indwelling intravenous catheter or by direct venipuncture.
# The effect of food on the relative oral bioavailability of IMB-1018972 following a single oral administration was explored. This occurred in the single-dose MR part where subjects received the same dose, first under fasted conditions and then under fed conditions.
# [3] = Phase 1 first-in-human study, combined single and multiple IMB-1018972 dose results (SAD, MAD, FE, MR), plasma and urine PK; details: plasma of subjects that received IMB-1018972
# Excerpt: as §1
# [4] = aqueous solubility of CV-8972; type: physicochemical; details: aqueous solution, aqueous buffer
# Excerpt: FIG. 2 is graph of the aqueous solubility of CV-8972 as a function of pH generated via dynamic methods due to instability.
# [5] = Phase 1 first-in-human study, multiple-dose MR part, safety and tolerability; type: in vivo
# Experimental: (§2) AEs were recorded from (first) admission until completion of the follow-up visit. Any clinically significant observations in results of clinical laboratory, 12-lead ECGs, vital signs, or physical examinations were recorded as AEs.
# (§3) A treatment-emergent AE (TEAE) was defined as any event not present prior to (the first) administration of the study drug or any event already present that worsened in either severity or frequency following exposure to the study drug.
# (§4) The severity of the AEs was rated as mild, moderate, or severe; the relationship between the AEs and the study drug was indicated as none, unlikely, possibly, likely, or definitely. Adverse events assessed as possibly, likely, or definitely were considered related to the study drug; AEs assessed as none or unlikely were considered not related to the study drug.
# [6] = pH stability profile of a 1 mg/mL solution of CV-8972 at 23° C.; type: physicochemical; details: for 1st order Kobs / % lost in 25 hrs / Amt. remaining / T5% / T10%: 1 mg/mL, 23° C.
# Experimental: The pH stability profile is summarized and shown in Table 2 for a 1 mg/mL solution of CV-8972 at 23° C.
# The hydrolysis proceeds via the first step shown in FIG. 1, as Nicotinic acid and CV-8814 are the only decomposition products generated. The optimal pH for solution stability appears to be around pH 5-5.1 for a 1 mg/mL solution with acid-catalyzed hydrolysis increasing at pH values less than 5.0 and base-catalyzed hydrolysis increasing above pH 5.0.
# [7] = Phase 1 first-in-human study, overall safety; type: in vivo; details: after administration as the MR formulations
# Experimental: Safety and tolerability were assessed through AEs, clinical laboratory, vital signs, ECGs, continuous cardiac monitoring (telemetry), and physical examination findings, and any other parameter that was relevant for safety assessment.
# [8] = Phase 1 first-in-human study, single-dose MR part, safety and tolerability; type: in vivo
# Experimental: The subjects received a single oral dose of 1 of 4 MR formulations of IMB-1018972 under fasted conditions (an overnight fast of at least 10 hours) on Days 1, 4, 7, and 10 in a fixed order that was the same for all subjects. The MR formulation of IMB-1018972 to be administered on Day 13 under fed conditions was 1 of the 4 MR formulations administered on Days 1, 4, 7, and 10 under fasted conditions.
# as §2, §3, §4
# [9] = solution stability (decomposition kinetics) in simulated GI media at 37° C. and 0.2 mg/mL, HPLC; type: physicochemical
# Experimental: The solution stability of CV-8972 was evaluated in multiple media currently used to simulate dissolution and stability conditions in the various sections of the GI tract. As CV-8972 will be subject to hydrolysis as it is dissolving in the GI tract, it will be important to understand these kinetics in terms of designing instant and controlled-release formulations. HPLC methods were used to perform these assessments.
# In summary, there may be some protective effect of the components of the FaSSGF, FaSSIF, and FeSSIF, particularly when compared to stability in 0.1N HCl or bicarbonate or phosphate buffer at pH 6-8. On the positive side, the fastest decomposition rate still has a T1/2 of 1.5 hours which should provide enough residence time for release and absorption in the upper GI tract.
# CaCo2 = assay: in vitro CaCo2 permeability; type: in vitro ADME
# [10] = in vitro CaCo2 permeability; type: in vitro ADME; details: human, Caco-2
# [11] = in vitro stability in biological media across species; type: in vitro ADME
# Excerpt: Additional and extensive in vitro stability work has been carried out across species to evaluate the impact of GI tract, liver tissues, and plasma on half-life as measured by in vitro clearance of CV-8972 in various biological media.
structure (smiles),measurement,setting,value
"COc1ccc(CN2CCN(CCO)CC2)c(OC)c1OC [CV-8814, 2-[4-[(2,3,4-trimethoxyphenyl)methyl]piperazin-1-yl]ethanol]",Cmax lower under fed conditions relative to fasted conditions,[1],approximately 36%
same,AUC(0-t),"[2]; female, dog, in vivo",653 µg·h/mL
same,AUC(0-t),"[2]; male, dog, in vivo",418 µg·h/mL
same,half-life,clinical,201 to 256 min
same,Cmax higher under fed conditions relative to fasted conditions,clinical; 200 mg,approximately 42%
same,AUC0-t higher after the 8-hour MR formulation than after the 4-hour MR formulation,clinical,6%
same,AUC0-t lower after the 8-hour MR formulation than after the 4-hour MR formulation,clinical,26%
same,Tmax,clinical; 200 mg,2 h
"COc1ccc(CN2CCN(CCOC(=O)c3cccnc3)CC2)c(OC)c1OC [CV-8972, 2-[4-[(2,3,4-trimethoxyphenyl)methyl]piperazin-1-yl]ethyl pyridine-3-carboxylate]",IMB-1018972 in plasma samples,[3],could be measured in only few plasma samples
same,solubility,"[4]; free base, read-out: saturated base solubility / minimal solubility as the free base",5000 to 10000 µg/mL
same,solubility,"[4]; salt, read-out: solubility as the salt",> 100000 µg/mL
same,number of TEAEs considered not related to the study drug,[5],30
same,number of TEAEs considered related to the study drug,[5],10
same,"number of TEAEs, SOC Gastrointestinal disorders",[5],9
same,"number of TEAEs, SOC General disorders and administration site conditions",[5],4
same,"number of TEAEs, SOC Musculoskeletal and connective tissue disorders",[5],4
same,"number of TEAEs, SOC Nervous system disorders",[5],9
same,"number of TEAEs, SOC Renal and urinary disorders (pollakiuria)",[5],4
same,number of drug-related TEAEs of pollakiuria,[5],4
same,"number of drug-related TEAEs, Nervous system disorders",[5],2
same,severity of TEAEs,[5],All TEAEs were of mild severity
same,subjects n (%) with drug-related Nervous system disorders,[5],2 (16.7%)
same,subjects n (%) with drug-related pollakiuria,[5],4 (33.3%)
same,"subjects n (%), SOC Gastrointestinal disorders",[5],5 (41.7%)
same,"subjects n (%), SOC General disorders and administration site conditions",[5],4 (33.3%)
same,"subjects n (%), SOC Musculoskeletal and connective tissue disorders",[5],4 (33.3%)
same,"subjects n (%), SOC Nervous system disorders",[5],7 (58.3%)
same,"subjects n (%), SOC Renal and urinary disorders (pollakiuria)",[5],4 (33.3%)
same,total number of TEAEs,[5],40
same,subjects reporting flushing,[5]; mild severity,2 (16.7%)
same,number of TEAEs of flushing,"[5]; mild severity, drug-related",2
same,optimal pH for solution stability,[6]; 1 mg/mL solution,5-5.1
same,1st order Kobs,"[6]; pH 2.74, Water",0.00516 h⁻¹
same,% lost in 25 hrs,"[6]; pH 2.74, Water",12.1%
same,Amt. remaining,"[6]; pH 2.74, Water",0.879 mg/mL
same,T5%,"[6]; pH 2.74, Water",9.9 h
same,T10%,"[6]; pH 2.74, Water",20.4 h
same,1st order Kobs,"[6]; pH 3.52, 20 mM Phos",0.00273 h⁻¹
same,% lost in 25 hrs,"[6]; pH 3.52, 20 mM Phos",6.6%
same,Amt. remaining,"[6]; pH 3.52, 20 mM Phos",0.934 mg/mL
same,T5%,"[6]; pH 3.52, 20 mM Phos",18.8 h
same,T10%,"[6]; pH 3.52, 20 mM Phos",38.6 h
same,1st order Kobs,"[6]; pH 5.05, 20 mM Am. Acetate",0.00105 h⁻¹
same,% lost in 25 hrs,"[6]; pH 5.05, 20 mM Am. Acetate",2.6%
same,Amt. remaining,"[6]; pH 5.05, 20 mM Am. Acetate",0.974 mg/mL
same,T5%,"[6]; pH 5.05, 20 mM Am. Acetate",48.7 h
same,T10%,"[6]; pH 5.05, 20 mM Am. Acetate",100.0 h
same,1st order Kobs,"[6]; pH 5.64, 20 mM Phos",0.00248 h⁻¹
same,% lost in 25 hrs,"[6]; pH 5.64, 20 mM Phos",6.0%
same,Amt. remaining,"[6]; pH 5.64, 20 mM Phos",0.94 mg/mL
same,T5%,"[6]; pH 5.64, 20 mM Phos",20.7 h
same,T10%,"[6]; pH 5.64, 20 mM Phos",42.6 h
same,1st order Kobs,"[6]; pH 6.5, 20 mM Phos",0.01119 h⁻¹
same,% lost in 25 hrs,"[6]; pH 6.5, 20 mM Phos",24.4%
same,Amt. remaining,"[6]; pH 6.5, 20 mM Phos",0.756 mg/mL
same,T5%,"[6]; pH 6.5, 20 mM Phos",4.6 h
same,T10%,"[6]; pH 6.5, 20 mM Phos",9.4 h
same,1st order Kobs,"[6]; pH 6.88, 20 mM Phos",0.02064 h⁻¹
same,% lost in 25 hrs,"[6]; pH 6.88, 20 mM Phos",40.3%
same,Amt. remaining,"[6]; pH 6.88, 20 mM Phos",0.597 mg/mL
same,T5%,"[6]; pH 6.88, 20 mM Phos",2.5 h
same,T10%,"[6]; pH 6.88, 20 mM Phos",5.1 h
same,hemodynamic changes and changes in the QTc-interval,[7],"no findings of hemodynamic changes, nor changes in the QTc-interval"
same,NOAEL at 28 days,"[2]; dog, in vivo",108 mg/kg/day
same,maximum recommended starting dose (MRSD),"[2]; dog, in vivo, 28 days",648 mg/day
same,NOAEL dose for a 60-kg individual,[2]; from HED,6480 mg
same,NOAEL at 28 days,"[2]; in vivo, 28-day dog, oral, read-out: no observed adverse effect level (NOAEL)",200 mg/kg/day
same,TEAEs of flushing,[8],No TEAEs of flushing were reported
same,difference between fasted and fed administration for the number and incidence of TEAEs,[8],no clear difference
same,dose or dissolution time dependency of the number and incidence of TEAEs,[8],no apparent dose or dissolution time dependency
same,number of TEAEs considered not related to the study drug,[8],30
same,number of TEAEs considered related to the study drug,[8],7
same,"number of TEAEs, SOC Gastrointestinal disorders",[8],5
same,"number of TEAEs, SOC General disorders and administration site conditions",[8],11
same,"number of TEAEs, SOC Nervous system disorders",[8],8
same,number of drug-related TEAEs of ALT increased,[8],1
same,number of drug-related TEAEs of headache,[8],1
same,number of drug-related TEAEs of pollakiuria,[8],5
same,severe TEAEs,[8],No severe TEAEs were reported
same,subjects n (%) with drug-related pollakiuria,[8],2 (16.7%)
same,"subjects n (%), SOC Gastrointestinal disorders",[8],4 (33.3%)
same,"subjects n (%), SOC General disorders and administration site conditions",[8],7 (58.3%)
same,"subjects n (%), SOC Nervous system disorders",[8],7 (58.3%)
same,total number of TEAEs,[8]; all treatments,37
same,Est Kobs (first order rate constant for hydrolysis),"[9]; 0.1 M HCl, pH 1.0, no surfactants",0.221 h⁻¹
same,Est Kobs (first order rate constant for hydrolysis),"[9]; BiCarb adj (0.1 M HCl neutralized with sodium bicarbonate), pH 6-8.2, no surfactants",0.456 h⁻¹
same,Est Kobs (first order rate constant for hydrolysis),"[9]; FaSSGF, pH 1.6",0.0143 h⁻¹
same,Est Kobs (first order rate constant for hydrolysis),"[9]; FaSSIF, pH 6.5",0.05124 h⁻¹
same,Est Kobs (first order rate constant for hydrolysis),"[9]; FeSSIF, pH 5.8",0.00696 h⁻¹
same,half-life at 0.2 mg/mL,"[9]; bicarbonate-adjusted medium (BiCarb adj), BiCarb adj, pH 6-8.2 (fastest decomposition rate)",90 min
same,efflux,CaCo2,little evidence of efflux
same,Papp,[10],~29 ×10⁻⁶ cm/s
same,"stability in GI tract, liver tissues and plasma (in vitro clearance)",[11],relatively unstable in the GI tract
"COc1ccc(CN2CCNCC2)c(OC)c1OC [trimetazidine, reference compound]",AUC(0-t),"[2]; female, dog, in vivo",13.8 µg·h/mL
same,AUC(0-t),"[2]; male, dog, in vivo",15 µg·h/mL
same,half-life,clinical,487 to 561 min
same,AUC0-t higher after the 8-hour MR formulation than after the 4-hour MR formulation,clinical,4%
same,AUC0-t lower after the 8-hour MR formulation than after the 4-hour MR formulation,clinical,12%
same,Tmax,clinical; 50 mg,8 h
same,Tmax,clinical; 200 mg,5 h
